# Patent publication US12077503B2, “Substituted cyclic amides and their use as herbicides” (FMC CORPORATION, priority 2015, dated 2024)
# Tests used:
# Assay type in all cases: in vivo
# [1] = tested on: barnyardgrass (Echinochloa crus-galli); experiment: Test G Pre-Emergence Protocol; settings: Echinochloa crus-galli, pre-emergence, 312 h, evaluated after 13 days; for pest or weed control at 15.625 g/ha: 15.625 g ai/ha; for pest or weed control at 15.625 g/ha / pest or weed control at 250 g/ha: read-out: Barnyardgrass damage rating (100=total damage to plant; 0=no damage to plant); for pest or weed control at 62.5 g/ha: 62.5 g ai/ha, 100=total damage to plant, 0=no damage to plant, read-out: Barnyardgrass damage rating; for pest or weed control at 250 g/ha: 250 g ai/ha
# Method in brief: (§1)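 Glasshouse pre-emergence test: soil-sown seeds, sprayed after 1 d at 15.625, 62.5 or 250 g/ha. Conditions 24/16° C day/night, 14 h light, 65% humidity, watering twice daily. Rating 13 d post-spray (100 = total damage).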
# corn (Zea mays) [2] = experiment: Test G Pre-Emergence Protocol; settings: Zea mays, pre-emergence, 312 h, evaluated after 13 days; for plant injury at 15.625 g/ha: 15.625 g ai/ha; for plant injury at 15.625 g/ha / plant injury at 250 g/ha: read-out: Corn damage rating (100=total damage to plant; 0=no damage to plant); for plant injury at 62.5 g/ha: 62.5 g ai/ha, 100=total damage to plant, 0=no damage to plant, read-out: Corn damage rating; for plant injury at 250 g/ha: 250 g ai/ha
# Method in brief: as §1
# [3] = tested on: giant foxtail (Setaria faberi); experiment: Test G Pre-Emergence Protocol; settings: Setaria faberi, pre-emergence, 312 h, evaluated after 13 days; for pest or weed control at 15.625 g/ha: 15.625 g ai/ha; for pest or weed control at 15.625 g/ha / pest or weed control at 250 g/ha: read-out: Foxtail, Giant damage rating (100=total damage to plant; 0=no damage to plant); for pest or weed control at 62.5 g/ha: 62.5 g ai/ha, 100=total damage to plant, 0=no damage to plant, read-out: Foxtail, Giant damage rating; for pest or weed control at 250 g/ha: 250 g ai/ha
# Method in brief: as §1
# [4] = tested on: ivy-leaved morning glory (Ipomoea hederacea); experiment: Test G Pre-Emergence Protocol; settings: Ipomoea, pre-emergence, 312 h, evaluated after 13 days; for pest or weed control at 15.625 g/ha: 15.625 g ai/ha; for pest or weed control at 15.625 g/ha / pest or weed control at 250 g/ha: read-out: Morningglory, Ivy-leaved damage rating (100=total damage to plant; 0=no damage to plant); for pest or weed control at 62.5 g/ha: 62.5 g ai/ha, 100=total damage to plant, 0=no damage to plant, read-out: Morningglory, Ivy-leaved damage rating; for pest or weed control at 250 g/ha: 250 g ai/ha
# Method in brief: as §1
# [5] = tested on: redroot pigweed (Amaranthus retroflexus); experiment: Test G Pre-Emergence Protocol; settings: Amaranthus retroflexus, pre-emergence, 312 h, evaluated after 13 days; for pest or weed control at 15.625 g/ha: 15.625 g ai/ha; for pest or weed control at 15.625 g/ha / pest or weed control at 250 g/ha: read-out: Pigweed, Redroot damage rating (100=total damage to plant; 0=no damage to plant); for pest or weed control at 62.5 g/ha: 62.5 g ai/ha, 100=total damage to plant, 0=no damage to plant, read-out: Pigweed, Redroot damage rating; for pest or weed control at 250 g/ha: 250 g ai/ha
# Method in brief: as §1
# [6] = tested on: velvetleaf (Abutilon theophrasti); experiment: Test G Pre-Emergence Protocol; settings: Abutilon theophrasti, pre-emergence, 312 h, evaluated after 13 days; for pest or weed control at 15.625 g/ha: 15.625 g ai/ha; for pest or weed control at 15.625 g/ha / pest or weed control at 250 g/ha: read-out: Velvetleaf damage rating (100=total damage to plant; 0=no damage to plant); for pest or weed control at 62.5 g/ha: 62.5 g ai/ha, 100=total damage to plant, 0=no damage to plant, read-out: Velvetleaf damage rating; for pest or weed control at 250 g/ha: 250 g ai/ha
# Method in brief: as §1
# [7] = tested on: barnyardgrass (Echinochloa crus-galli); experiment: Test G Post-Emergence Protocol; settings: Echinochloa crus-galli, post-emergence, 312 h, read-out: Barnyardgrass damage rating; for pest or weed control at 15.625 g/ha: 15.625 g ai/ha, evaluated after 13 days (100=total damage to plant; 0=no damage to plant); for pest or weed control at 62.5 g/ha: 62.5 g ai/ha; for pest or weed control at 62.5 g/ha / pest or weed control at 250 g/ha: evaluated after 13 days, 100=total damage to plant, 0=no damage to plant; for pest or weed control at 250 g/ha: 250 g ai/ha
# Method in brief: (§2)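 Foliar application was made 8 days after sowing, using an aqueous spray of the active in acetone/water (50:50) with 0.5% Tween 20, at doses of 15.625, 62.5 or 250 g/ha. Injury was assessed 13 days later, where 100 meant the plant was fully damaged.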
# corn (Zea mays) [8] = experiment: Test G Post-Emergence Protocol; settings: Zea mays, post-emergence, 312 h, read-out: Corn damage rating; for plant injury at 15.625 g/ha: 15.625 g ai/ha, evaluated after 13 days (100=total damage to plant; 0=no damage to plant); for plant injury at 62.5 g/ha: 62.5 g ai/ha; for plant injury at 62.5 g/ha / plant injury at 250 g/ha: evaluated after 13 days, 100=total damage to plant, 0=no damage to plant; for plant injury at 250 g/ha: 250 g ai/ha
# Method in brief: as §2
# [9] = tested on: giant foxtail (Setaria faberi); experiment: Test G Post-Emergence Protocol; settings: Setaria faberi, post-emergence, 312 h, read-out: Foxtail, Giant damage rating; for pest or weed control at 15.625 g/ha: 15.625 g ai/ha, evaluated after 13 days (100=total damage to plant; 0=no damage to plant); for pest or weed control at 62.5 g/ha: 62.5 g ai/ha; for pest or weed control at 62.5 g/ha / pest or weed control at 250 g/ha: evaluated after 13 days, 100=total damage to plant, 0=no damage to plant; for pest or weed control at 250 g/ha: 250 g ai/ha
# Method in brief: as §2
# [10] = tested on: ivy-leaved morning glory (Ipomoea hederacea); experiment: Test G Post-Emergence Protocol; settings: Ipomoea, post-emergence, 312 h, read-out: Morningglory, Ivy-leaved damage rating; for pest or weed control at 15.625 g/ha: 15.625 g ai/ha, evaluated after 13 days (100=total damage to plant; 0=no damage to plant); for pest or weed control at 62.5 g/ha: 62.5 g ai/ha; for pest or weed control at 62.5 g/ha / pest or weed control at 250 g/ha: evaluated after 13 days, 100=total damage to plant, 0=no damage to plant; for pest or weed control at 250 g/ha: 250 g ai/ha
# Method in brief: as §2
# [11] = tested on: redroot pigweed (Amaranthus retroflexus); experiment: Test G Post-Emergence Protocol; settings: Amaranthus retroflexus, post-emergence, 312 h, read-out: Pigweed, Redroot damage rating; for pest or weed control at 15.625 g/ha: 15.625 g ai/ha, evaluated after 13 days (100=total damage to plant; 0=no damage to plant); for pest or weed control at 62.5 g/ha: 62.5 g ai/ha; for pest or weed control at 62.5 g/ha / pest or weed control at 250 g/ha: evaluated after 13 days, 100=total damage to plant, 0=no damage to plant; for pest or weed control at 250 g/ha: 250 g ai/ha
# Method in brief: as §2
# [12] = tested on: velvetleaf (Abutilon theophrasti); experiment: Test G Post-Emergence Protocol; settings: Abutilon theophrasti, post-emergence, 312 h, read-out: Velvetleaf damage rating; for pest or weed control at 15.625 g/ha: 15.625 g ai/ha, evaluated after 13 days (100=total damage to plant; 0=no damage to plant); for pest or weed control at 62.5 g/ha: 62.5 g ai/ha; for pest or weed control at 62.5 g/ha / pest or weed control at 250 g/ha: evaluated after 13 days, 100=total damage to plant, 0=no damage to plant; for pest or weed control at 250 g/ha: 250 g ai/ha
# Method in brief: as §2
Structure (SMILES),pest or weed control at 15.625 g/ha [1],pest or weed control at 62.5 g/ha [1],pest or weed control at 250 g/ha [1],plant injury at 15.625 g/ha (corn (Zea mays) [2]),plant injury at 62.5 g/ha (corn (Zea mays) [2]),plant injury at 250 g/ha (corn (Zea mays) [2]),pest or weed control at 15.625 g/ha [3],pest or weed control at 62.5 g/ha [3],pest or weed control at 250 g/ha [3],pest or weed control at 15.625 g/ha [4],pest or weed control at 62.5 g/ha [4],pest or weed control at 250 g/ha [4],pest or weed control at 15.625 g/ha [5],pest or weed control at 62.5 g/ha [5],pest or weed control at 250 g/ha [5],pest or weed control at 15.625 g/ha [6],pest or weed control at 62.5 g/ha [6],pest or weed control at 250 g/ha [6],pest or weed control at 15.625 g/ha [7],pest or weed control at 62.5 g/ha [7],also measured
CN1C[C@H](c2cc(Cl)cc(C(F)(F)F)c2)[C@@H](C(=O)Nc2ccccc2S(C)(=O)=O)C1=O (racemic) [Compound 1797],40%,60%,80%,10%,50%,70%,60%,80%,90%,0%,10%,20%,0%,0%,60%,0%,20%,70%,30%,70%,pest or weed control at 250 g/ha [7]: 80%; plant injury at 15.625 g/ha (corn (Zea mays) [8]): 10%; plant injury at 62.5 g/ha (corn (Zea mays) [8]): 60%; plant injury at 250 g/ha (corn (Zea mays) [8]): 70%; pest or weed control at 15.625 g/ha [9]: 50%; pest or weed control at 62.5 g/ha [9]: 80%; pest or weed control at 250 g/ha [9]: 80%; pest or weed control at 15.625 g/ha [10]: 0%; pest or weed control at 62.5 g/ha [10]: 40%; pest or weed control at 250 g/ha [10]: 80%; pest or weed control at 15.625 g/ha [11]: 30%; pest or weed control at 62.5 g/ha [11]: 70%; pest or weed control at 250 g/ha [11]: 80%; pest or weed control at 15.625 g/ha [12]: 60%; pest or weed control at 62.5 g/ha [12]: 80%; pest or weed control at 250 g/ha [12]: 90%
COc1cc(C2CN(C)C(=O)C2C(=O)Nc2cccc(F)c2F)cc(OC)c1F (stereo not drawn) [Compound 1711],30%,10%,80%,0%,0%,20%,70%,70%,90%,0%,10%,10%,0%,0%,0%,0%,0%,0%,30%,70%,pest or weed control at 250 g/ha [7]: 80%; plant injury at 15.625 g/ha (corn (Zea mays) [8]): 0%; plant injury at 62.5 g/ha (corn (Zea mays) [8]): 10%; plant injury at 250 g/ha (corn (Zea mays) [8]): 40%; pest or weed control at 15.625 g/ha [9]: 70%; pest or weed control at 62.5 g/ha [9]: 80%; pest or weed control at 250 g/ha [9]: 80%; pest or weed control at 15.625 g/ha [10]: 10%; pest or weed control at 62.5 g/ha [10]: 30%; pest or weed control at 250 g/ha [10]: 70%; pest or weed control at 15.625 g/ha [11]: 0%; pest or weed control at 62.5 g/ha [11]: 0%; pest or weed control at 250 g/ha [11]: 0%; pest or weed control at 15.625 g/ha [12]: 0%; pest or weed control at 62.5 g/ha [12]: 0%; pest or weed control at 250 g/ha [12]: 0%
Cc1ccc(C2CN(C)C(=O)C2C(=O)Nc2cccc(F)c2F)cc1C#N (stereo not drawn) [Compound 1687],40%,70%,80%,0%,40%,90%,60%,70%,90%,0%,40%,50%,0%,10%,30%,0%,0%,10%,0%,50%,pest or weed control at 250 g/ha [7]: 80%; plant injury at 15.625 g/ha (corn (Zea mays) [8]): 10%; plant injury at 62.5 g/ha (corn (Zea mays) [8]): 40%; plant injury at 250 g/ha (corn (Zea mays) [8]): 90%; pest or weed control at 15.625 g/ha [9]: 60%; pest or weed control at 62.5 g/ha [9]: 80%; pest or weed control at 250 g/ha [9]: 80%; pest or weed control at 15.625 g/ha [10]: 20%; pest or weed control at 62.5 g/ha [10]: 60%; pest or weed control at 250 g/ha [10]: 70%; pest or weed control at 15.625 g/ha [11]: 40%; pest or weed control at 62.5 g/ha [11]: 40%; pest or weed control at 250 g/ha [11]: 50%; pest or weed control at 15.625 g/ha [12]: 40%; pest or weed control at 62.5 g/ha [12]: 40%; pest or weed control at 250 g/ha [12]: 50%
